Test results as given in publication PMC9655037, “Alternation of Organ-Specific Exposure in LPS-Induced Pneumonia Mice after the Inhalation of Tetrandrine Is Governed by Metabolizing Enzyme Suppression and Lysosomal Trapping” (International Journal of Molecular Sciences, 2022).

Columns and labels:
[1] = target: T1, OATP1B3 (Homo sapiens, UniProt Q9NPD5); assay: Uptake by OATP1B3-expressing HEK293 cells; details: positive control 20 μM, 10 min
T1 sequence (Q9NPD5 1-702): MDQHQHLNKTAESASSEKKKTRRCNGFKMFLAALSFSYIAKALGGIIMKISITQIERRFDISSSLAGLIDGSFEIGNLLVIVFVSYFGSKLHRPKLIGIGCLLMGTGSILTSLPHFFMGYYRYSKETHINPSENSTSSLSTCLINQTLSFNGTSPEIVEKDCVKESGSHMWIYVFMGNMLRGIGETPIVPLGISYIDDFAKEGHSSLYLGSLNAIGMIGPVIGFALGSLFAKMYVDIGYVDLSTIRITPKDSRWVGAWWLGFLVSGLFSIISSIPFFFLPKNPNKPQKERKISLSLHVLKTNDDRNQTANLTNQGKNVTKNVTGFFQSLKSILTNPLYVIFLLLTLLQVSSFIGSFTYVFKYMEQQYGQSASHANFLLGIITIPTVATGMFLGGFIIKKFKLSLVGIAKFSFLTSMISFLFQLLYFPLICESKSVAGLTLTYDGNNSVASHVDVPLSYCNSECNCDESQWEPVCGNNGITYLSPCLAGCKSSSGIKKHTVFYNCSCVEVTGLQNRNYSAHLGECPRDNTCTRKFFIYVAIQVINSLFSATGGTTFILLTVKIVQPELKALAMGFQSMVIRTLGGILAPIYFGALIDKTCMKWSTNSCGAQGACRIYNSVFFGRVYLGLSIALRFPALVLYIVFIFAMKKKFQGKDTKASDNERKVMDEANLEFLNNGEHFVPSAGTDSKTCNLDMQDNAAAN
Experimental: (§1) Expressing OATP1B1/OATP1B3 or MOCK HEK293 cells were utilized to evaluate whether TET is a substrate of these two SLC transporters. Cell culture was performed as mentioned above. Cells were seeded on 96-well plates at the density of 0.8 × 10^5 cells/well. The culture medium was replaced with a medium containing 5 mM sodium butyrate for 24 h before the transport study to enhance the expression of transporters. For the transport assay, the DMEM media were removed and the cells were washed with pre-warmed Krebs–Henseleit buffer twice (0.1 mL/well). The second washing buffer was kept in the wells and the plate was incubated at 37 °C for 5 min before the uptake assay was initiated. […] The incubation solution was removed and the cells were washed with ice-cold transportation buffer three times (0.1 mL/well). A total of 0.1 mL pure water was added to each well to lyse the cells by repeated freezing and thawing (−196 °C–37 °C, three times). The cell lysate was collected and stored at −40 °C for LC-MS/MS analysis and protein measurement.
(§2) In the uptake study of TET by OATP1B1 and OATP1B3 expressing the HEK293 cell line, the uptake clearance (U) of the substrate was calculated according to Equation (5), the transporter-mediated uptake ratio (UR) was calculated by dividing the uptake clearance from transporter-expressing cells to that from the mock cells according to Equation (6), and the inhibition ratio (IR) was calculated according to Equation (7), where p represents the protein content and T is the duration of the incubation time. (5) U=Clysate/p×T (6) UR=U/UMOCK (7) IR=(1−Uwith inhibitor−Umock with inhibitor/Uwithout inhibitor−Umock without inhibitor)×100

[2] = test system: HEK293-MOCK cells; assay: Uptake by MOCK (empty vector) HEK293 cells; details: positive control 20 μM, 10 min
Experimental: as §1, §2

[3] = Bidirectional transport in MOCK LLC-PK1 cells; details: pig
Experimental: (§3) MDR1 expressing LLC-PK1 cells or MOCK LLC-PK1 cells were utilized to identify whether P-gp is involved in the efflux transport across the membrane barrier. Cells were cultured as described above. Cells were seeded at a density of 2 × 10^4 in Millicell® 24-well cell culture plates with a 6.5 mm insert (0.4 µm polycarbonate membrane) from Corning (Kennebunk, ME, USA) 7 days before the experiments. On the day of the experiment, transepithelial electrical resistance (TEER) was measured to assess monolayer integrity. After washing the cells twice with HBSS, transport experiments in either the apical-to-basolateral direction (A-B) or the basolateral-to-apical direction (B-A) were conducted. […] After incubating the plates at 37 °C for 2 h, samples from the receiving and donor wells (50 μL) were taken simultaneously. All the samples were stored at −40 °C for LC-MS/MS analysis.
(§4) In the bidirectional transport study in LLC-PK1 cells, the following equations were used to calculate Papp values and the MDR1 efflux ratio.

[4] = target: MDR1 (Homo sapiens, UniProt P08183); assay: Bidirectional transport in MDR1-transfected LLC-PK1 cells; details: MDR1-transfected; 2 μM TET, 10 μM metoprolol, 10 μM atenolol, 2 μM digoxin; TAR 5 μM where stated; 2 h, 37 °C
Experimental: as §3, §4

[5] = target: MDR1 (P-gp) (Homo sapiens, UniProt P08183); assay: as above
Experimental: as §3, §4

[6] = test system: CYP3a; assay: CYP3a probe substrate turnover in microsomes from normal and LPS-treated mice; assay type: in vitro ADME, mouse; details: microsomes of LPS-treated vs normal mice, Figure 4A

MDR1 (P-gp), sequence (P08183 whole entry): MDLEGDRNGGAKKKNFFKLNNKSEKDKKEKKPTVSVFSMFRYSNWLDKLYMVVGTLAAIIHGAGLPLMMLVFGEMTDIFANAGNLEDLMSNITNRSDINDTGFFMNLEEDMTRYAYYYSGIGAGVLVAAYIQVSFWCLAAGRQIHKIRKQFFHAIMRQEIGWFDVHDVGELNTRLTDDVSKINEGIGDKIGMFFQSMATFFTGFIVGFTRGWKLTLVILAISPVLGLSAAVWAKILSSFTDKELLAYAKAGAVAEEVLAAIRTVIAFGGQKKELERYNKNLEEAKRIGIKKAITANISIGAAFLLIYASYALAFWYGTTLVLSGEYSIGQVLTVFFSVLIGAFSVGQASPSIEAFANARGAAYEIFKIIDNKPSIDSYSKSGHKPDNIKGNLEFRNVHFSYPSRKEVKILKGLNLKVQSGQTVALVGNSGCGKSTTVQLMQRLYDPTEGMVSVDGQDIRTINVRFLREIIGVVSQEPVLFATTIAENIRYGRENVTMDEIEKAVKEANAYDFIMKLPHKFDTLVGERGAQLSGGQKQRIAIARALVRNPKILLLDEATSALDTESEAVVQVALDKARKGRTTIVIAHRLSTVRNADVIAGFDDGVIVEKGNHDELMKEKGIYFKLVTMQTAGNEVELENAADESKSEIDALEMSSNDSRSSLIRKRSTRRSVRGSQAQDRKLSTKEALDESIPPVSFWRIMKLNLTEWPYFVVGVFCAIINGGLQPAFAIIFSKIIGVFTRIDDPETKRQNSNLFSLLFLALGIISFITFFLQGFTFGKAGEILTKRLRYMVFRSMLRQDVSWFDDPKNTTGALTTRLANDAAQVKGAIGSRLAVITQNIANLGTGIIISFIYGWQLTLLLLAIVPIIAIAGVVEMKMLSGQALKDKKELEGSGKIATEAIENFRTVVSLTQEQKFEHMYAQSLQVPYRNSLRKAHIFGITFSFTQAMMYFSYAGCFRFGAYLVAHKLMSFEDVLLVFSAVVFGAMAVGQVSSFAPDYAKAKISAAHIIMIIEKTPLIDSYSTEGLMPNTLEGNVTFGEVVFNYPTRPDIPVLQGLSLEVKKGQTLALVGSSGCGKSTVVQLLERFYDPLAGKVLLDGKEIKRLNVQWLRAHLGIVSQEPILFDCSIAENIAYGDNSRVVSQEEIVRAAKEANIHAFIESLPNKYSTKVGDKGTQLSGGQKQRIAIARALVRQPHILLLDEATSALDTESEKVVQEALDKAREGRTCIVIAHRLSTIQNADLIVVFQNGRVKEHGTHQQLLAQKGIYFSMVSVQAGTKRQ
MDR1, sequence (P08183 whole entry): as above

Q: With C[C@]12CC[C@@H]3c4ccc(O)cc4CC[C@H]3[C@@H]1CC[C@@H]2O[C@@H]1O[C@H](C(=O)O)[C@@H](O)[C@H](O)[C@H]1O [Positive Control, 17β-estradiol-17β-D-glucuronide] as the molecule, how does the “Uptake Clearance” value ([1]; OATP1B3+RIF) read?
A: Its value is 3.66 ± 0.03 nM/min/mg Protein.

Q: And the “Uptake Clearance” value ([1]; OATP1B3 cells)?
A: The value was 30.0 ± 1.46 **^, ## nM/min/mg Protein.

Q: And the “Uptake Clearance” value ([2]; MOCK (OATP1B1 set))?
A: The value was 2.4 ± 0.03 nM/min/mg Protein.

Q: What about the “Uptake Clearance” value ([2]; MOCK (OATP1B3 set)) of the same molecule?
A: The value was 2.7 ± 0.07 nM/min/mg Protein.

Q: What about the “Uptake Clearance” value ([2]; MOCK+RIF (OATP1B1 set)) of the same molecule?
A: Its value is 2.63 ± 0.08 nM/min/mg Protein.

Q: And the “Uptake Clearance” value ([2]; MOCK+RIF (OATP1B3 set))?
A: Its value is 2.73 ± 0.08 nM/min/mg Protein.

Q: Which Papp A→B at 2 h [3] does the source give for C[C@H]1O[C@@H](O[C@H]2[C@@H](O)C[C@H](O[C@H]3[C@@H](O)C[C@H](O[C@H]4CC[C@@]5(C)[C@H](CC[C@@H]6[C@@H]5C[C@@H](O)[C@]5(C)[C@@H](C7=CC(=O)OC7)CC[C@]65O)C4)O[C@@H]3C)O[C@@H]2C)C[C@H](O)[C@@H]1O [Digoxin, digoxin] here?
A: The Papp A→B at 2 h was 2.25 ± 0.26 ×10⁻⁶ cm/s.

Q: What about the Papp B→A at 2 h [3] of the same molecule?
A: Its Papp B→A at 2 h is 1.74 ± 0.2 ×10⁻⁶ cm/s.

Q: And the efflux ratio at 2 h [3]?
A: The efflux ratio at 2 h was 0.77.

Q: And the “Papp A-B” value [4]?
A: The value was 0.98 ± 0.11 **^,##.

Q: And the “Papp B-A” value [4]?
A: The value was 11.27 ± 0.77 **^,##.

Q: And the efflux ratio at 2 h ([5]; human, LLC-PK1)?
A: Its efflux ratio at 2 h is 11.5.

Q: With COCCc1ccc(OCC(O)CNC(C)C)cc1 (centres unmarked) [Metoprolol, metoprolol] as the molecule, how does the Papp A→B at 2 h [3] read?
A: Its Papp A→B at 2 h is 32.2 ± 2.8 ×10⁻⁶ cm/s.

Q: And the Papp B→A at 2 h [3]?
A: Its Papp B→A at 2 h is 25 ± 0.3 ×10⁻⁶ cm/s.

Q: What about the efflux ratio at 2 h [3] of the same molecule?
A: The efflux ratio at 2 h was 0.7.

Q: What about the Papp A→B at 2 h [5] of the same molecule?
A: Its Papp A→B at 2 h is 28.2 ± 0.65 ×10⁻⁶ cm/s.

Q: What about the Papp B→A at 2 h ([5]; human, LLC-PK1) of the same molecule?
A: Its Papp B→A at 2 h is 28.3 ± 2.07 ×10⁻⁶ cm/s.

Q: And the efflux ratio at 2 h ([5]; human, LLC-PK1)?
A: The efflux ratio at 2 h was 1.

Q: Which “change of 6-β-hydroxylation reaction under inflammation state (no obvious alternation)” value [6] does the source give for C[C@]12CC[C@H]3[C@@H](CCC4=CC(=O)CC[C@@]43C)[C@@H]1CC[C@@H]2O [testosterone] here?
A: The value was ~ 1.14 fold.

Q: Which “1′-hydroxylation reaction lowered by LPS-induced pneumonia” value ([6]; at 24 h) does the source give for Cc1ncc2n1-c1ccc(Cl)cc1C(c1ccccc1F)=NC2 [midazolam] here?
A: The value was ~ 2.55 fold.
